Test system: not listed separately
Assay: Evaluation of mediators as NADH mediators in dry strips (screen-printed electrodes, NADH dose response)
Conditions: electrodes containing 1,10-PQ, NADH 0-16.7 mM in PBS, +400 mV versus Ag/AgCl
Protocol: Screen-printed electrodes incorporating 1,10-PQ and MB were produced from an organic carbon ink containing these NAD(P)H mediators at a level of 3.5 mg/g ink. The solid mediators were mixed into a commercial conducting carbon ink (Gwent Electronic Materials).
The dose response curve for the electrodes containing 1,10-PQ tested with aqueous NADH solutions (0-16.7 mM) in PBS at a poise potential of +400 mV versus a printed Ag/AgCl reference electrode is shown in FIG. 3. A slope of 0.58 nA mM^−1 NADH was recorded. The dose response curve for the electrodes containing MB tested with aqueous NADH solutions (0-12.4 mM) at a poise potential of +100 mV versus a printed Ag/AgCl reference electrode is shown in FIG. 4. An increased slope of 8.48 μA mM^−1 NADH was observed.

Compound	Slope of dose response curve to NADH [nA mM^−1 NADH]
O=C1C(=O)c2cccnc2-c2ncccc21 [1,10-PQ, 1,10-Phenanthroline quinone]	0.58

Same assay, conditions: electrodes containing MB, NADH 0-12.4 mM, +100 mV versus Ag/AgCl

Compound	Slope of dose response curve to NADH [μA mM^−1 NADH]
C[N+](C)=c1ccc2nc3c(ccc4ccccc43)oc-2c1.[Cl-] [MB, Meldola's Blue]	8.48

Test system: not listed separately
Assay: Dry strips containing HBDH and NAD+: response to D-3-hydroxybutyrate after storage
Conditions: after 2 weeks storage (30° C., desiccated), +100 mV versus Ag/AgCl
Protocol: Screen-printed electrodes were produced from an aqueous carbon ink incorporating 1,10-PQ or MB at a level of 2.4 or 4.3 mg/g ink, respectively, together with the enzyme HBDH (120 units/g ink) and NAD^+ (110 mg/g ink). The ink also contained a polysaccharide binder.
The electrodes were tested after 4, 14, and 26 weeks of storage (30° C., desiccated) with aqueous D-3-hydroxybutyrate solutions (0-25 mM) in PBS at a poise potential of +400 mV versus a printed Ag/AgCl reference electrode. All three dose responses were non-linear and levelled out with a current of 8.5 μA being recorded at 24 mM D-3-hydroxybutyrate.
The electrodes were tested after 2 and 14 weeks storage (30° C., desiccated) with aqueous D-3-hydroxybutyrate solutions (0-28 mM) in PBS at a poise potential of +100 mV versus a printed Ag/AgCl reference electrode. The dose response curves were similar to those in FIG. 4. A current of 8.6 μA was recorded at 24 mM D-3-hydroxybutyrate for these electrodes after 2 weeks storage. This is almost identical to responses obtained from dry strips containing 1,10-PQ.

Compound	Current at 24 mM D-3-hydroxybutyrate [μA]
C[N+](C)=c1ccc2nc3c(ccc4ccccc43)oc-2c1.[Cl-] [MB, Meldola's Blue]	8.6

Same assay, conditions: after 4, 14 and 26 weeks of storage (30° C., desiccated), +400 mV versus Ag/AgCl

Compound	Current at 24 mM D-3-hydroxybutyrate [μA]
O=C1C(=O)c2cccnc2-c2ncccc21 [1,10-PQ, 1,10-Phenanthroline quinone]	8.5

Test system: D-3-Hydroxybutyrate dehydrogenase (HBDH)
Assay: Assessment of mediator inhibition of D-3-hydroxybutyrate dehydrogenase (assay rate before and after filtration)
Format: biochemical, Pseudomonas sp.
Parameters: Residual enzyme activity after filtration (percentage of the original activity): concentration or dose not given beside the values
Conditions: 50 U/ml HBDH with mediator in Tris buffer pH 8.2, incubated 0.5 hours at 37.5 C, NADH at 340 nm; measure of efficiency as oxidant of NADH
Protocol: D-3-Hydroxybutyrate dehydrogenase (HBDH; EC 1.1.1.30) from Pseudomonas sp. was purchased from Toyobo Co., Ltd. p-Nicotinamide adenine dinucleotide (NAD^+) and D,L-3-hydroxybutyric acid were supplied by Boehringer Mannheim.
A series of 18 solutions (2.5 ml each) were prepared, each containing 50 U/ml HBDH and 1.29 or 2.58 mg of the following NAD(P)H mediators: MB(3), 4-Me-BQ(4), 1-Me0-PMS (5), DCIP(6), 1,10-PQ(7), 1,7-PQ(8), 2,9-Me2-1,10-PQ(10), 1-Me-1,10-PQ^+ (11), and [Ru(bpy)2(1,10-PQ)](PF6)2 (12) in Tris buffer (50 mM, pH 8.2). A control solution was also prepared, containing enzyme but no mediator. The solutions were incubated for 0.5 hours at 37.5 C, then assayed (in triplicate) for NADH at 340 nm, using a Sigma Diagnostics D-3-hydroxybutyrate kit. The extent of the interference of the added mediator with the assay rate compared to the control afforded a quantitative measure of the mediator's efficiency as an oxidant of NADH.
The enzyme was then reisolated from the mediator solutions by filtration through a polysulfone membrane (nominal molecular weight cut-off: 30,000) in a microcentrifuge filter (Millipore). The enzyme remaining on the filter was dissolved in Tris buffer (0.2 ml), and the resulting solution was assayed (in triplicate) with the Sigma kit. By comparing the results of the assays before and after filtration, the effect of any covalently and/or irreversibly bound mediator on the enzyme activity could be determined.

Compound	Assay Rate before filtration [absorbance units/min]
O=C1C(=O)c2ncccc2-c2ncccc21 [1,7-PQ, 1,7-Phenanthroline quinone]	0.115
O=C1C(=O)c2cccnc2-c2ncccc21 [1,10-PQ, 1,10-Phenanthroline quinone]	0.149
C[n+]1cccc2c1-c1ncccc1C(=O)C2=O.O=S(=O)([O-])C(F)(F)F [1-Me-1,10-PQ^+, 1-Me-1,10-phenanthrolinium quinone trifluoromethane sulphonate]	0.150
Cc1ccc2c(n1)-c1nc(C)ccc1C(=O)C2=O [2,9-Me2-1,10-PQ, 2,9-Dimethyl-1,10-phenanthroline quinone]	0.189
COS(=O)(=O)[O-].COc1cccc2c1nc1ccccc1[n+]2C [Compound 1-MeO-PMS, 1-Methoxy phenazine methosulphate]	0.009
CC1=CC(=O)C(=O)C=C1 [Compound 4-Me-BQ, 4-Methyl-1,2-benzoquinone]	0.005
O=C1C(Cl)=CC(=Nc2ccc(O)cc2)C=C1Cl [DCIP, 2,6-Dichloroindophenol]	0.104
C[N+](C)=c1ccc2nc3c(ccc4ccccc43)oc-2c1.[Cl-] [MB, Meldola's Blue]	0.008
[Ru(bpy)2(1,10-PQ)] (PF6)2 [[Ru(bpy)2(1,10-PQ)](PF6)2]	0.114

Same assay, conditions: after filtration, compared with control (no mediator)

Compound	Residual enzyme activity after filtration (percentage of the original activity) [%]
C[n+]1cccc2c1-c1ncccc1C(=O)C2=O.O=S(=O)([O-])C(F)(F)F [1-Me-1,10-PQ^+, 1-Me-1,10-phenanthrolinium quinone trifluoromethane sulphonate]	94
COS(=O)(=O)[O-].COc1cccc2c1nc1ccccc1[n+]2C [Compound 1-MeO-PMS, 1-Methoxy phenazine methosulphate]	47
CC1=CC(=O)C(=O)C=C1 [Compound 4-Me-BQ, 4-Methyl-1,2-benzoquinone]	4
O=C1C(Cl)=CC(=Nc2ccc(O)cc2)C=C1Cl [DCIP, 2,6-Dichloroindophenol]	57
C[N+](C)=c1ccc2nc3c(ccc4ccccc43)oc-2c1.[Cl-] [MB, Meldola's Blue]	16
[Ru(bpy)2(1,10-PQ)] (PF6)2 [[Ru(bpy)2(1,10-PQ)](PF6)2]	98

Same assay, conditions: enzyme reisolated from the mediator solution by filtration (30,000 cut-off), redissolved in Tris buffer

Compound	Assay Rate after filtration [absorbance units/min]
O=C1C(=O)c2ncccc2-c2ncccc21 [1,7-PQ, 1,7-Phenanthroline quinone]	0.150
O=C1C(=O)c2cccnc2-c2ncccc21 [1,10-PQ, 1,10-Phenanthroline quinone]	0.160
C[n+]1cccc2c1-c1ncccc1C(=O)C2=O.O=S(=O)([O-])C(F)(F)F [1-Me-1,10-PQ^+, 1-Me-1,10-phenanthrolinium quinone trifluoromethane sulphonate]	0.185
COS(=O)(=O)[O-].COc1cccc2c1nc1ccccc1[n+]2C [Compound 1-MeO-PMS, 1-Methoxy phenazine methosulphate]	0.071
CC1=CC(=O)C(=O)C=C1 [Compound 4-Me-BQ, 4-Methyl-1,2-benzoquinone]	0.007
O=C1C(Cl)=CC(=Nc2ccc(O)cc2)C=C1Cl [DCIP, 2,6-Dichloroindophenol]	0.085
C[N+](C)=c1ccc2nc3c(ccc4ccccc43)oc-2c1.[Cl-] [MB, Meldola's Blue]	0.026
[Ru(bpy)2(1,10-PQ)] (PF6)2 [[Ru(bpy)2(1,10-PQ)](PF6)2]	0.193

Source: US8414760B2, “Biosensor electrode mediators for regeneration of cofactors” (priority 1997, dated 2013)
